Results reported in PubChem BioAssay AID1996.
Converted amounts (≈) assume the structure as drawn.

Conditions: buffer; pH 7.4; 200.0 µM

Row | Compound | solubility kinetic
1 | COc1ccc(-c2nc(N)c(C#N)c(-c3cccnc3)c2C)cc1 | 2.8 µg/mL (≈ 8.85 µM)
2 | Cc1noc(C(=O)Nc2ccc(C#N)cc2)c1Cl | 1.6 µg/mL (≈ 6.11 µM)
3 | Cc1ccc(OCCNC(=O)c2cccc(C)c2)cc1 | 29 µg/mL (≈ 108 µM)
4 | Cc1cnc(C(=O)OCc2nc3ccsc3c(=O)[nH]2)cn1 | 45.3 µg/mL (≈ 150 µM)
5 | CCC(C)(C)NC(=O)CN(C(=O)c1ccc(N2CCCC2)nc1)c1ccc(F)cc1 | 60.7 µg/mL (≈ 147 µM)
6 | CCOc1ccc(C(=O)Nc2ccc3c(c2)OCCO3)cc1 | < 0.6 µg/mL
7 | O=C(CN1CCCCC1)Nc1nc(-c2ccc(Cl)cc2)cs1 | < 0.2 µg/mL
8 | CC(C)(C)C(=O)N1CCN(c2nc3ccccc3o2)CC1 | > 43.1 µg/mL
9 | CC(=O)N/C(=N/c1nc(C)cc(C)n1)Nc1ccc(F)cc1F | 1.6 µg/mL (≈ 5.01 µM)
10 | COc1cccc(C(=O)N2CCCN(C)CC2)c1OC | 36.2 µg/mL (≈ 130 µM)
11 | Fc1ccc(Nc2c3c(nc4ccccc24)CCC3)cc1 | 33.1 µg/mL (≈ 119 µM)
12 | CNc1nc(-c2cccs2)cc(C(F)(F)F)c1C#N | < 0.2 µg/mL
13 | CCCOc1ccc(C(=O)Nc2cccnc2)cc1 | 36 µg/mL (≈ 140 µM)
14 | O=C(O)c1nn(-c2ccc(F)cc2)ccc1=O | > 35.1 µg/mL
15 | O=C1NC(=O)N(c2ccc3c(c2)OCO3)C(=O)/C1=C\c1ccsc1 | > 51.3 µg/mL
16 | Cc1ccc(C(=O)O/N=C(\c2ccccc2)c2ccncc2)cc1 | 0.6 µg/mL (≈ 1.9 µM)
17 | O=C(N1CCCC1)C12CC3CCC(CC(C3)C1)C2 | 28.4 µg/mL (≈ 115 µM)
18 | O=C(COC(=O)c1ccc([N+](=O)[O-])s1)c1ccc[nH]1 | 22.5 µg/mL (≈ 80.3 µM)
19 | CC(=O)c1cccc(NCC(=O)c2ccc(C)c([N+](=O)[O-])c2)c1 | 13.7 µg/mL (≈ 43.9 µM)
20 | O=C(Nc1nccs1)C1=COCCO1 | > 31.8 µg/mL
21 | CC(C)C(NC(=O)c1c(F)cccc1F)C(=O)N1CCN(c2ncccn2)CC1 (configuration not stated) | 12.1 µg/mL (≈ 30 µM)
22 | CCOc1ccccc1CNC(c1ccccc1)c1ccccc1.Cl | 1.4 µg/mL

Row | Compound | solubility kinetic
23 | Cc1cc(C)c(OCCOCCN2CCCC2)c(C)c1 | 30.2 µg/mL (≈ 109 µM)
24 | Cc1ccc(-c2[nH]c3ccccc3c2SCCN)cc1 | > 42.4 µg/mL
25 | O=C(NC(=S)N1CCc2ccccc21)c1ccccc1Cl | 46.6 µg/mL (≈ 147 µM)
26 | O=C(COc1ccc(/C=C\[N+](=O)[O-])cc1)N1CCOCC1 | 31.7 µg/mL (≈ 108 µM)
27 | CCC(=O)NC1CCN(C(=S)NC)CC1 | > 34.4 µg/mL
28 | Cc1ccc(Cl)cc1NC(=S)NCCCSC1CCCCC1 | 2.5 µg/mL (≈ 7 µM)
29 | COCCNC(=O)Cn1cc(C(=O)c2ccccc2F)c2ccccc21 | 17.9 µg/mL (≈ 50.5 µM)
30 | O=C(NCCc1csc(-c2ccccc2)n1)c1ccco1 | 42.4 µg/mL (≈ 142 µM)
31 | Cc1ccc(NC(=O)CN(C)Cc2c(O)ccc3ccccc23)cc1 | 23.7 µg/mL (≈ 70.9 µM)
32 | CCn1ccnc1CNC(=O)c1cc(COc2ccc(F)cc2F)on1 | 49.3 µg/mL (≈ 136 µM)
33 | CC(=O)/C=C(\C)Nc1c(C)n(C)n(-c2ccccc2)c1=O | > 42.8 µg/mL
34 | Cc1nc(-c2ccccc2OC(F)(F)F)[nH]c(=O)c1Cl | 43.2 µg/mL (≈ 142 µM)
35 | Br.Clc1ccc(CNCC2CCCO2)cc1 (configuration not stated) | > 46 µg/mL
36 | CCCN1CCN(C(=O)c2oc3c(Cl)cccc3c2C)CC1 | 35.7 µg/mL (≈ 111 µM)
37 | CCCCNC(=O)C1CC(=O)N(CCc2ccc(C)cc2)C1 (configuration not stated) | > 45.4 µg/mL
38 | Cc1cc(S(=O)(=O)Cc2noc(-c3c(C)noc3C)n2)c(C)cc1Cl | < 0.3 µg/mL
39 | CC1CCN(C(=O)COc2ncnc3ccccc23)CC1 | 35.7 µg/mL (≈ 125 µM)
40 | Cc1onc(-c2c(Cl)cccc2Cl)c1C(=O)N1CCCCC1 | > 50.9 µg/mL
41 | CC(C)(C)c1ccc(NC(=O)c2ccsc2)cc1 | 1.1 µg/mL (≈ 4.24 µM)
42 | Cc1cc(C(=O)CN2C(=O)NC(C)(c3cc(F)ccc3F)C2=O)c(C)n1C1CC1 (configuration not stated) | 48.9 µg/mL (≈ 122 µM)
43 | C=CCNC(=O)CN(Cc1ccccc1)S(=O)(=O)c1ccccc1 | > 51.7 µg/mL
44 | Fc1ccc(-c2nc(-c3cnccn3)no2)c(Cl)c1 | 3.5 µg/mL (≈ 12.7 µM)

Row | Compound | solubility kinetic
45 | Cc1cccn2c(=O)nc(SCC(=O)N3CC(C)OC(C)C3)nc12 (configuration not stated) | 51.7 µg/mL (≈ 148 µM)
46 | CCc1nc2sc(C(C)=O)c(N)c2c2c1CCCC2 | 1.1 µg/mL (≈ 4.01 µM)
47 | Cc1c(C)c(C)c(S(=O)(=O)N2CCSCC2)c(C)c1C | 1.5 µg/mL (≈ 4.78 µM)
48 | Cc1cc(C(=O)COC(=O)CC(NC(N)=O)c2ccc(Cl)cc2)c(C)n1C (configuration not stated) | 29.2 µg/mL (≈ 74.5 µM)
49 | COc1ccc(/C=C/C(=O)OCC(=O)NC(=O)NC(C)(C)C)cc1 | < 0.4 µg/mL
50 | O=C(CSc1ncnc2ccccc12)c1ccco1 | > 40.5 µg/mL
51 | Cc1ccc(S(=O)(=O)N[C@H](C(=O)NC2CCC(C)CC2)C(C)C)cc1 (some centres not stated) | 24 µg/mL (≈ 65.5 µM)
52 | CCOC(=O)N1CCN(C(=S)NC(=O)c2cccc(OC)c2)CC1 | > 52.7 µg/mL
53 | S=c1[nH]c2ccccc2[nH]1 | > 22.5 µg/mL
54 | O=C(Cn1c(=O)oc2ccccc21)NCCc1ccccc1 | 44 µg/mL (≈ 148 µM)
55 | Cc1ccc(CNC(=O)CCCC(=O)c2ccccc2)cc1 | 7.9 µg/mL (≈ 26.7 µM)
56 | COC(=O)c1ccc(CSc2cc(C)c3ccccc3n2)o1 | 3.4 µg/mL (≈ 10.8 µM)
57 | CCOc1ccc(Nc2ccc([N+](=O)[O-])c3nonc23)cc1 | 15.2 µg/mL (≈ 50.6 µM)
58 | CCc1c(C)nc(SCC(=O)N2CCCCC2)[nH]c1=O | > 44.3 µg/mL
59 | O=C(c1ccc(Cl)cc1)N1CCn2c1nc1ccccc12 | 1.1 µg/mL (≈ 3.69 µM)
60 | CC(=O)N/C(=C\c1ccccc1)C(=O)OCc1ccc(C)cc1 | > 46.4 µg/mL
61 | Cc1ccc(NC(=O)COC(=O)CC2CCCC2)cc1F | 29.5 µg/mL (≈ 101 µM)
62 | Cc1ccnc(NC2CCCCC2)c1 | 25.3 µg/mL (≈ 133 µM)
63 | Cc1cc(C(=O)COC(=O)C2CC2)c(C)n1-c1ccc(F)cc1 | 12.9 µg/mL (≈ 40.9 µM)
64 | CCn1c(=O)n(CC)c2cc([N+](=O)[O-])c(N3CCNCC3)cc21 | > 47.9 µg/mL
65 | CCOC(=O)c1sc(=NC(=O)C2CC2)n(C)c1C | > 40.2 µg/mL
66 | CCOC(=O)N1CCN(C(=O)COC(=O)c2ccc(Cl)nc2)CC1 | > 53.4 µg/mL

Row | Compound | solubility kinetic
67 | CNC(=S)N1CCN(c2nc(-c3ccc(F)cc3)cs2)CC1 | 2.5 µg/mL (≈ 7.43 µM)
68 | COC(=O)c1ccc(Nc2ncnc3sccc23)cc1 | 1.8 µg/mL (≈ 6.31 µM)
69 | O=C(O)C1CC(c2ccccc2)=Nc2ccccc2S1 (configuration not stated) | 9.8 µg/mL (≈ 34.6 µM)
70 | O=C(O)/C=C/C(=O)Nc1ccc(OCc2ccccc2)cc1 | > 44.6 µg/mL
71 | CC1(C)CC2(C)OCCN2C(=S)N1 (configuration not stated) | > 30 µg/mL
72 | COc1cccc(C(=O)Nc2ccc(C(=O)NCC3CCCO3)cc2)c1 (configuration not stated) | 45.2 µg/mL (≈ 128 µM)
73 | CCc1nc(Nc2cccc(O)c2)c2oc3ccccc3c2n1.Cl | 0.5 µg/mL
74 | CC1=C(C)CC(C(=O)Nc2nccs2)C(C(=O)O)C1 (configuration not stated) | 40.6 µg/mL (≈ 145 µM)
75 | CC(=O)Nc1cc(-c2nc3ccccc3o2)ccc1Cl | 1.6 µg/mL (≈ 5.58 µM)
76 | O=C(CN1CCOCC1)Nc1cc([N+](=O)[O-])ccc1Cl | 9.8 µg/mL (≈ 32.7 µM)
77 | COc1ccc(OC)c(/C=C/C(=O)NCCc2nc3ccccc3[nH]2)c1 | 46.4 µg/mL (≈ 132 µM)
78 | NC(N)=NC(N)=Nc1cccc2ccccc12 | > 34.1 µg/mL
79 | Cc1cccc(OCC(=O)Nc2ccc3c(c2)C(=O)NC3=O)c1 | 1.3 µg/mL (≈ 4.19 µM)
80 | COc1ccc(C(=O)C2CCCN(CCO)C2)c(C)c1 (configuration not stated) | 30.3 µg/mL (≈ 109 µM)
81 | CCCCNC(=O)C1CCC(=O)N1CCc1ccccc1 (configuration not stated) | 42.4 µg/mL (≈ 147 µM)
82 | NC(=O)c1ccc(NC(=O)COC(=O)c2ccc(Cl)nc2)cc1 | > 50.1 µg/mL
83 | O=C(COC(=O)c1ccc(Br)o1)NCC1CCCCC1 | > 51.6 µg/mL
84 | O=S(=O)(c1c(F)cccc1F)N1CCCC2CCCCC21 (configuration not stated) | 13.3 µg/mL (≈ 42.2 µM)
85 | COc1ccc(CNC(=O)COc2ccc(F)cc2)cc1 | > 43.4 µg/mL
86 | O=C(Nc1ccc(SC(F)F)cc1)c1ccccc1F | 6.1 µg/mL (≈ 20.5 µM)
87 | COc1ccc(NC(=O)c2ccc3nc[nH]c3c2)cc1 | > 40.1 µg/mL
